Converted amounts (≈) assume the structure as drawn.
Legend:
Type in all cases: functional
[1] = test system: Mycobacterium tuberculosis; assay: Antitubercular activity against multi-drug-resistant Mycobacterium tuberculosis H37Rv clinical isolate after 28 days by 10 fold serial dilution method; settings: 672 h
[2] = test system: Mycobacterium tuberculosis; assay: Ratio of Ciprofloxacin MIC to compound MIC for multi-drug-resistant Mycobacterium tuberculosis H37Rv clinical isolate
[3] = test system: Mycobacterium tuberculosis; assay: Ratio of Ethambutol MIC to compound MIC for multi-drug-resistant Mycobacterium tuberculosis H37Rv clinical isolate

For `Brc1ccc(-c2nc3ccccc3c(-c3ccccc3)c2Oc2ccc(-c3cc(-c4ccccc4)c4ccccc4n3)cc2)cc1`, the MIC [1] was 19.1 µM (≈ 12.5 µg/mL).
Compound `COc1cccc(-c2nc3ccccc3c(-c3ccccc3)c2Oc2ccc(-c3cc(-c4ccccc4)c4ccccc4n3)cc2)c1` has an MIC [1] of 41.2 µM (≈ 25 µg/mL).
`Clc1ccc2nc(-c3ccc(Oc4c(-c5ccccc5)nc5ccc(Cl)cc5c4-c4ccccc4)cc3)cc(-c3ccccc3)c2c1` gave an MIC [1] of 19.4 µM (≈ 12.5 µg/mL).
Work on `CO[C@H]1/C=C/O[C@@]2(C)Oc3c(C)c(O)c4c(O)c(c(/C=N/N5CCN(C)CC5)c(O)c4c3C2=O)NC(=O)/C(C)=C\C=C\[C@H](C)[C@H](O)[C@@H](C)[C@@H](O)[C@@H](C)[C@H](OC(C)=O)[C@@H]1C` [RIFAMPIN] yielded an MIC [1] of 0.1 µM (≈ 0.0823 µg/mL).
In the case of `CC[C@@H](CO)NCCN[C@@H](CC)CO` [ETHAMBUTOL], the MIC [1] is reported as 7.6 µM (≈ 1.55 µg/mL).
With `c1ccc(-c2ccc(-c3nc4ccccc4c(-c4ccccc4)c3Oc3ccc(-c4cc(-c5ccccc5)c5ccccc5n4)cc3)cc2)cc1` the MIC [1] was 19.1 µM (≈ 12.5 µg/mL).
Work on `Clc1ccc(-c2nc3ccccc3c(-c3ccccc3)c2Oc2ccc(-c3cc(-c4ccccc4)c4ccccc4n3)cc2)cc1` yielded an MIC [1] of 20.5 µM (≈ 12.5 µg/mL).
With `CC(=O)c1ccc(Oc2c(-c3ccc(Br)cc3)nc3ccc(Cl)cc3c2-c2ccccc2)cc1` the MIC [1] was 47.3 µM (≈ 25 µg/mL).
Compound `Cc1ccc(-c2nc3ccc(Cl)cc3c(-c3ccccc3)c2Oc2ccc(-c3cc(-c4ccccc4)c4cc(Cl)ccc4n3)cc2)cc1` has an MIC [1] of 37.9 µM (≈ 25 µg/mL).
In the case of `Clc1ccc2nc(-c3ccc(Oc4c(-c5ccc6ccccc6c5)nc5ccc(Cl)cc5c4-c4ccccc4)cc3)cc(-c3ccccc3)c2c1`, the MIC [1] is reported as 35.9 µM (≈ 25 µg/mL).
`Clc1ccc2nc(-c3ccc(Oc4c(-c5cccc(Br)c5)nc5ccc(Cl)cc5c4-c4ccccc4)cc3)cc(-c3ccccc3)c2c1` was tested, and the MIC [1] was 1.1 µM (≈ 0.797 µg/mL) and the Ratio [2] was 4.27.
In the case of `Brc1cccc(-c2nc3ccccc3c(-c3ccccc3)c2Oc2ccc(-c3cc(-c4ccccc4)c4ccccc4n3)cc2)c1`, the MIC [1] is reported as 4.7 µM (≈ 3.08 µg/mL).
`NNC(=O)c1ccncc1` [ISONIAZID] showed an MIC [1] of 0.4 µM (≈ 0.0549 µg/mL).
In the case of `CC(=O)c1ccc(Oc2c(-c3ccc(Cl)cc3)nc3ccc(Cl)cc3c2-c2ccccc2)cc1`, the MIC [1] is reported as 51.6 µM (≈ 25 µg/mL).
Compound `Cc1ccc(-c2nc3ccccc3c(-c3ccccc3)c2Oc2ccc(-c3cc(-c4ccccc4)c4ccccc4n3)cc2)cc1` has an MIC [1] of 42.3 µM (≈ 25 µg/mL).
`NC(=O)c1cnccn1` [PYRAZINAMIDE] gave an MIC [1] of 50.8 µM (≈ 6.25 µg/mL).
For `c1ccc(-c2cc(-c3ccc(Oc4c(-c5cccc6ccccc56)nc5ccccc5c4-c4ccccc4)cc3)nc3ccccc23)cc1`, the MIC [1] was 39.8 µM (≈ 24.9 µg/mL).
`CC(=O)c1ccc(Oc2c(-c3ccc4ccccc4c3)nc3ccc(Cl)cc3c2-c2ccccc2)cc1` gave an MIC [1] of 50 µM (≈ 25 µg/mL).
`CC(=O)c1ccc(Oc2c(-c3ccccc3)nc3ccc(Cl)cc3c2-c2ccccc2)cc1` gave an MIC [1] of 55.6 µM (≈ 25 µg/mL).
For `CC(=O)c1ccc(Oc2c(-c3ccc(C)cc3)nc3ccc(Cl)cc3c2-c2ccccc2)cc1`, the MIC [1] was 53.8 µM (≈ 25 µg/mL).
With `Clc1cccc(-c2nc3ccccc3c(-c3ccccc3)c2Oc2ccc(-c3cc(-c4ccccc4)c4ccccc4n3)cc2)c1` the MIC [1] was 20.5 µM (≈ 12.5 µg/mL).
In the case of `CC(=O)c1ccc(Oc2c(-c3cccc(Br)c3)nc3ccc(Cl)cc3c2-c2ccccc2)cc1`, the MIC [1] is reported as 11.8 µM (≈ 6.24 µg/mL).
`c1ccc(-c2cc(-c3ccc(Oc4c(-c5ccc6ccccc6c5)nc5ccccc5c4-c4ccccc4)cc3)nc3ccccc23)cc1` showed an MIC [1] of 39.9 µM (≈ 25 µg/mL).
`Clc1ccc2nc(-c3ccc(Oc4c(-c5ccc(Br)cc5)nc5ccc(Cl)cc5c4-c4ccccc4)cc3)cc(-c3ccccc3)c2c1` was tested, and the MIC [1] was 2.2 µM (≈ 1.59 µg/mL), the Ratio [2] was 2.14 and the Ratio [3] was 3.45.
Compound `COc1ccc(-c2nc3ccccc3c(-c3ccccc3)c2Oc2ccc(-c3cc(-c4ccccc4)c4ccccc4n3)cc2)cc1` has an MIC [1] of 41.2 µM (≈ 25 µg/mL).
For `c1ccc(-c2nc3ccccc3c(-c3ccccc3)c2Oc2ccc(-c3cc(-c4ccccc4)c4ccccc4n3)cc2)cc1`, the MIC [1] was 43.4 µM (≈ 25 µg/mL).
Work on `Clc1ccc(-c2nc3ccc(Cl)cc3c(-c3ccccc3)c2Oc2ccc(-c3cc(-c4ccccc4)c4cc(Cl)ccc4n3)cc2)cc1` yielded an MIC [1] of 4.6 µM (≈ 3.13 µg/mL).
